Measured values reported in article PMC12028158, “Synthesis and In Vitro Evaluation of the Anticancer Effect of Novel Phosphonium Vindoline Derivatives” (International Journal of Molecular Sciences, 2025).
Read-outs that look alike come from different tables or passages of the source.

Key:
Type in all cases: cell-based
OVCAR-8 = assay: NCI60 five-dose screen; settings: Homo sapiens
NCI-H322M = assay: NCI60 five-dose screen; settings: Homo sapiens
SN12C = assay: NCI60 five-dose screen; settings: Homo sapiens
HOP-62 = assay: NCI60 one-dose screen; settings: Homo sapiens
HCT-116 = assay: NCI60 one-dose screen; settings: Homo sapiens
Prostate Cancer panel = assay: NCI60 five-dose screen, panel mean; settings: Homo sapiens, read-out: Mean GI50
NCI-H226 = assay: NCI60 five-dose screen; settings: Homo sapiens
MDA-MB-468 = assay: NCI60 one-dose screen; settings: Homo sapiens
MDA-MB-435 = assay: NCI60 one-dose screen; settings: Homo sapiens
HL-60(TB) = assay: NCI60 one-dose screen; settings: Homo sapiens
HCC-2998 = assay: NCI60 one-dose screen; settings: Homo sapiens
COLO 205 = assay: NCI60 one-dose screen; settings: Homo sapiens
CCRF-CEM = assay: NCI60 five-dose screen; settings: Homo sapiens
SR = assay: NCI60 five-dose screen; settings: Homo sapiens
ACHN = assay: NCI60 five-dose screen; settings: Homo sapiens
SF-295 = assay: NCI60 one-dose screen; settings: Homo sapiens
T-47D = assay: NCI60 five-dose screen; settings: Homo sapiens, T47D
SNB-19 = assay: NCI60 five-dose screen; settings: Homo sapiens
MDA-MB-231/ATCC = assay: NCI60 one-dose screen; settings: Homo sapiens
SF-268 = assay: NCI60 five-dose screen; settings: Homo sapiens
DU-145 = assay: NCI60 five-dose screen; settings: Homo sapiens
HS 578T = assay: NCI60 five-dose screen; settings: Homo sapiens
SW-620 [1] = assay: NCI60 one-dose screen; settings: Homo sapiens
SW-620 [2] = assay: NCI60 five-dose screen; settings: Homo sapiens
BT-549 = assay: NCI60 one-dose screen; settings: Homo sapiens
M14 = assay: NCI60 five-dose screen; settings: Homo sapiens
CNS Cancer panel = assay: NCI60 five-dose screen, panel mean; settings: Homo sapiens, read-out: Mean GI50
NCI/ADR-RES = assay: NCI60 one-dose screen; settings: Homo sapiens, read-out: Growth percent
RXF 393 = assay: NCI60 one-dose screen; settings: Homo sapiens
NCI-H23 = assay: NCI60 five-dose screen; settings: Homo sapiens
OVCAR-5 = assay: NCI60 five-dose screen; settings: Homo sapiens
[3] = tested on: 60 human tumor cell lines (NCI60); assay: NCI60 one-dose screen, overall mean; settings: for activity at 10 µM: Homo sapiens, read-out: Mean growth percent; for average reduction / average cell death: 10 µM, average over cell lines
[4] = Renal Cancer, five-dose, read-out: GI50
[5] = Leukemia, five-dose, read-out: GI50

`CCC12C=CCN3CCC4(c5ccc(OC)cc5N(C)C4C(O)(C(=O)OC)C1OC(=O)CCC[P+](c1ccc(C)cc1)(c1ccc(C)cc1)c1ccc(C)cc1)C32` (stereo not drawn) [9a] showed a GI50 (OVCAR-8; OVCAR-8) of 372 nM, a GI50 (NCI-H322M) of 785 nM and a GI50 (SN12C) of 291 nM. For the same molecule, the activity at 10 µM (HOP-62; HOP-62, read-out: Growth percent) was -81.6%, the activity at 10 µM (HCT-116; HCT-116, read-out: Growth percent) was -93.4% and the GI50 (Prostate Cancer panel) was 380 nM. The GI50 (NCI-H226; NCI-H226) was 521 nM, the activity at 10 µM (MDA-MB-468; MDA-MB-468, read-out: Growth percent) was -92.1% and the activity at 10 µM (MDA-MB-435; MDA-MB-435, read-out: Growth percent) was -57.5%. The activity at 10 µM (HL-60(TB); HL-60, read-out: Growth percent) was -47.5%, the activity at 10 µM (HCC-2998; HCC 2998, read-out: Growth percent) was -91.4% and the activity at 10 µM (COLO 205; COLO 205, read-out: Growth percent) was -50.2%. It also gave a GI50 (CCRF-CEM) of 359 nM, a GI50 (SR) of 281 nM and a GI50 (ACHN) of 1610 nM. The activity at 10 µM (SF-295; SF-295, read-out: Growth percent) was -89.1%, the GI50 (T-47D) was 314 nM and the GI50 (SNB-19; SNB-19) was 306 nM. For the same molecule, the activity at 10 µM (MDA-MB-231/ATCC; MDA-MB-231, read-out: Growth percent) was -94.8%, the GI50 (SF-268; SF-268) was 343 nM and the GI50 (DU-145; DU-145) was 457 nM. For the same molecule, the GI50 (HS 578T; Hs-578T) was 344 nM, the activity at 10 µM (SW-620 [1]; SW-620, read-out: Growth percent) was -85.2% and the GI50 (SW-620 [2]; SW-620) was 434 nM. It also gave an activity at 10 µM (BT-549; BT-549, read-out: Growth percent) of -96.9%, a GI50 (M14; M14) of 456 nM and a GI50 (CNS Cancer panel) of 360 nM. For the same molecule, the activity at 10 µM (NCI/ADR-RES) was 18.1%, the activity at 10 µM (RXF 393; RXF 393, read-out: Growth percent) was -82.8% and the GI50 (NCI-H23; NCI-H23) was 303 nM. The GI50 (OVCAR-5; OVCAR-5) was 331 nM, the activity at 10 µM ([3]; 60 cell) was -78.6% and the “average reduction / average cell death” value ([3]; one-dose) was “more than 70%”.

With `CC[C@]12C=CCN3CC[C@@]4(c5ccc(OC)cc5N(C)[C@H]4[C@@](O)(C(=O)OC)[C@@H]1OC(=O)CCC[P+](c1ccc(OC)cc1)(c1ccc(OC)cc1)c1ccc(OC)cc1)[C@@H]32` [9b] the GI50 (OVCAR-8; OVCAR-8, Ovarian Cancer, five-dose, read-out: GI50) was 1410 nM, the GI50 (NCI-H322M; Non-small Cell Lung Cancer, five-dose, read-out: GI50) was 2860 nM and the GI50 (SN12C; [4]) was 672 nM. For the same molecule, the activity at 10 µM (HOP-62; HOP-62, 10 μM, one-dose, read-out: Growth percent) was -81.5%, the activity at 10 µM (HCT-116; HCT-116, 10 μM, one-dose, read-out: Growth percent) was -68.8% and the GI50 (Prostate Cancer panel; mean over Prostate Cancer panel) was 710 nM. For the same molecule, the GI50 (NCI-H226; NCI-H226, Non-small Cell Lung Cancer, five-dose, read-out: GI50) was 1430 nM, the activity at 10 µM (MDA-MB-468; MDA-MB-468, 10 μM, one-dose, read-out: Growth percent) was -92.1% and the activity at 10 µM (MDA-MB-435; MDA-MB-435, 10 μM, one-dose, read-out: Growth percent) was -76.9%. For the same molecule, the activity at 10 µM (HL-60(TB); HL-60(TB), 10 μM, one-dose, read-out: Growth percent) was -39.6%, the activity at 10 µM (HCC-2998; HCC-2998, 10 μM, one-dose, read-out: Growth percent) was -89.7% and the activity at 10 µM (COLO 205; COLO 205, 10 μM, one-dose, read-out: Growth percent) was -64.4%. For the same molecule, the GI50 (CCRF-CEM; [5]) was 887 nM, the GI50 (SR; [5]) was 389 nM and the GI50 (ACHN; [4]) was 458 nM. The activity at 10 µM (SF-295; SF-295, 10 μM, one-dose, read-out: Growth percent) was -93.7%, the GI50 (T-47D; T-47D, Breast Cancer, five-dose, read-out: GI50) was 353 nM and the GI50 (SNB-19; SNB-19, SNB-19, CNS Cancer, five-dose, read-out: GI50) was 391 nM. The activity at 10 µM (MDA-MB-231/ATCC; MDA-MB-231/ATCC, 10 μM, one-dose, read-out: Growth percent) was -97%, the GI50 (SF-268; SF-268, CNS Cancer, five-dose, read-out: GI50) was 1210 nM and the GI50 (DU-145; DU-145, Prostate Cancer, five-dose, read-out: GI50) was 955 nM. For the same molecule, the GI50 (HS 578T; HS 578T, Breast Cancer, five-dose, read-out: GI50) was 1180 nM, the activity at 10 µM (SW-620 [1]; SW-620, 10 μM, one-dose, read-out: Growth percent) was -82.4% and the GI50 (SW-620 [2]; SW-620, Colon Cancer, five-dose, read-out: GI50) was 844 nM. For the same molecule, the activity at 10 µM (BT-549; BT-549, 10 μM, one-dose, read-out: Growth percent) was -96.6%, the GI50 (M14; M14, Melanoma, five-dose, read-out: GI50) was 1120 nM and the GI50 (CNS Cancer panel; mean over CNS Cancer panel) was 1020 nM. The activity at 10 µM (NCI/ADR-RES; 10 μM, one-dose) was 79.9%, the activity at 10 µM (RXF 393; RXF 393, 10 μM, one-dose, read-out: Growth percent) was -92.6% and the GI50 (NCI-H23; NCI-H23, Non-small Cell Lung Cancer, five-dose, read-out: GI50) was 671 nM. The GI50 (OVCAR-5; OVCAR-5, Ovarian Cancer, five-dose, read-out: GI50) was 1770 nM, the activity at 10 µM ([3]; mean over 60 cell lines, 10 μM, one-dose) was -76.2% and the “average reduction / average cell death” value ([3]; one-dose) was “more than 70%”.
